Peptide text beside a SMILES is read from it. * marks the point of attachment. Cbz = O=C(OCc1ccccc1)*
How the values were obtained:
ERα [1] = molecular target: T1, ERα (Homo sapiens, UniProt P03372); test: ERα degradation in luminal breast cancer cells lacking LATS; assay type: cell-based; conditions: cancer cells lacking LATS grown as xenograft
T1 sequence (P03372 1-595): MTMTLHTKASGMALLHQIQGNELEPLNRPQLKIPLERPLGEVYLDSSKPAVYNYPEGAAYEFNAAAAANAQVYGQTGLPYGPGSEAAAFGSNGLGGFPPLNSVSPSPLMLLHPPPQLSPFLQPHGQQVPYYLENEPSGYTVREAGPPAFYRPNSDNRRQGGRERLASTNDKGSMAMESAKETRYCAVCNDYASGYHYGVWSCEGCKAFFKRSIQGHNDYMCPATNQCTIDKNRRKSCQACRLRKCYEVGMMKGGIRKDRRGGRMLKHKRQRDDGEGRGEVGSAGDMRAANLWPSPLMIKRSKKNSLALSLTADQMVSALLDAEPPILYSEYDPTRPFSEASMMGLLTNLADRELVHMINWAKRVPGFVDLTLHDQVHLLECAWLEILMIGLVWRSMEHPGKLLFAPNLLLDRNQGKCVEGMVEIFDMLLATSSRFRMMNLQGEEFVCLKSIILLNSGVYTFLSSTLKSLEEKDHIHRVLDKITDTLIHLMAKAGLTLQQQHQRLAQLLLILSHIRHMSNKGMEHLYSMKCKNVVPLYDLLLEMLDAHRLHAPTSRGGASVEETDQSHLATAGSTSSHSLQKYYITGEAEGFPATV
Protocol: Immunoblotting and immunoprecipitation Cells for immunoblotting and ELISA were lysed with RIPA buffer (50 mM Tris-HCl pH 8, 150 mM NACl, 1% NP-40, 0.5% sodium deoxycholate, 0.1% SDS), supplemented with 1× protease inhibitor cocktail (Complete Mini, Roche), 0.2 mMol/L sodium orthovanadate, 20 mM sodium fluoride and 1 mM phenylmethylsulfonyl fluoride. […]

T47D = test: Orthotopic xenograft tumor growth of ER-positive breast cancer cells lacking LATS; assay type: in vivo, mouse; conditions: cancer cells lacking LATS grown as xenograft, intraperitoneal
Protocol: Animal experiments SCID/beige and SCID/NOD (Jackson Labs) were used in compliance with the Swiss laws for animal welfare and animal protocols were approved by the Swiss Cantonal Veterinary Office of Basel. For orthotopic engraftment of breast cancer cell lines, 2×10^6 T47D or 1×10^6 SUM159 cells were suspended in a 100 μl mixture of Basement Membrane Matrix Phenol Red-free (BD Biosciences) and PBS 1:1 and injected into the mouse mammary gland 4. For the estrogen-dependent T47D cell line, mice received estrogen-containing drinking water 2 days prior to injection. Tumor-bearing mice were randomized based on tumor volume prior to the initiation of treatment, which started when average tumor volume was at least 100 mm^3. Fulvestrant and Tamoxifen hydrate dissolved in sunflower seed oil (all from Sigma) were injected intraperitoneally as indicated. Tumors were measured every 3 to 4 days with vernier calipers, and tumor volumes were calculated by the formula 0.5×(larger diameter)×(smaller diameter)^2.
Compounds and formulations Fulvestrant, 4-Hydroxytamoxifen (4-OHT), Tamoxifen (OHT), Cycloheximide and MG132 were from Sigma. Fulvestrant and MG-132 were prepared as 10 mMol/L stock solution in DMSO, 4-OHT and Cycloheximide as 10 mMol/L in ethanol and all stock solutions were stored at −20° C. […]

T47D and MCF7 cells = test: Cell viability (WST-1) of ER-positive breast cancer cells after downregulation of LATS; assay type: cell-based, human; conditions: LATS downregulated vs control
From the text: (§1) Lentiviral vectors, lentivirus production and infection For LATS knockdown, the following TRC pLKO clones (Sigma) were used: LATS_1=NM_004690.x-2666s1c1, LATS_2=NM_004690.x-3614s1c1, LATS_3=NM_014572.x-2894s1c1 and the MISSION® Non-Target shRNA Control Vector SHC002. For the competition experiment, GFP and ERα expressing lentiviral vectors were cloned as described in (Duss, BCR, 2007). Lentiviruses were produced by PEI transfection of 293 T cells as described (Britschgi et al., 2012; Duss et al., 2014). The titer of each lentiviral batch was determined on PHBECs or MCF10A cells. Cell lines were infected o/n in the presence of hexamethrine bromide (8 μg/mL). Infections were performed at a multiplicity of infection of 5-20 viral particles per cell. Selection with 1.25-1.5 μg/ml puromycin was applied 48 h after infection.
(§2) Cell lines and in vitro experiments SUM159PT human breast cancer cells were from Asterand and propagated as recommended. All the other cell lines were from, and were cultured according to the protocol of ATCC. MCF10A cells were maintained as previously described (Bentires-Alj et al., 2006). […] Cell viability was measured using the Cell Proliferation Reagent WST-1 (Roche). […] Colony area was quantified using the Odyssey scanner and software (LICOR) or Image-J (Fiji 64 bit). […]

SUM159 and MDA 436 = test: Colony formation of triple-negative breast cancer lines with or without LATS; assay type: cell-based, human; conditions: SUM159 and MDA 436 in M5 medium
From the text: as §1, §2

ERα [2] = test: LATS1-induced ERα degradation in LATS1 overexpressing cells (immunoblot); assay type: cell-based, human
Protocol: Cell lines and in vitro experiments SUM159PT human breast cancer cells were from Asterand and propagated as recommended. All the other cell lines were from, and were cultured according to the protocol of ATCC. MCF10A cells were maintained as previously described (Bentires-Alj et al., 2006). For most experiments, MCF10A, SUM159 and MDA 436 cells were cultured in M5 medium and the medium was refreshed or replaced every 3 days. Antibody blocking experiments were performed by adding anti-AREG (R&D, MAB262, 0.5-10 μg/ml) or a mouse IgG antibody (R&D, 10 or 2.5 μg/ml) to the medium prior to seeding of the cells or transferring the conditioned medium. Cell viability was measured using the Cell Proliferation Reagent WST-1 (Roche). Colony formation assays were performed by seeding 500-1000 cells/well in 6-well plates. Cells were allowed to adhere overnight before treatment with inhibitors or solvent as indicated. Colonies were stained after 6-10 days with 0.2% crystal violet in PBS/4% formalin. Colony area was quantified using the Odyssey scanner and software (LICOR) or Image-J (Fiji 64 bit). For sphere formation assays, 4000 (passage 1) or 1000 (subsequent passages) MCF10A cells/ml were grown in ultra-low attachment (ULA) dishes (Corning) for 5-7 days. […]

SUM159 shLATS xenografts = test: Orthotopic SUM159 shNT / shLATS xenograft tumor growth; assay type: in vivo, mouse; conditions: tumor-bearing mice, tamoxifen citrate 3 mg/kg, intraperitoneal, n=5, **P<0.01 vs shNT
Protocol: Animal experiments SCID/beige and SCID/NOD (Jackson Labs) were used in compliance with the Swiss laws for animal welfare and animal protocols were approved by the Swiss Cantonal Veterinary Office of Basel. For orthotopic engraftment of breast cancer cell lines, 2×10^6 T47D or 1×10^6 SUM159 cells were suspended in a 100 μl mixture of Basement Membrane Matrix Phenol Red-free (BD Biosciences) and PBS 1:1 and injected into the mouse mammary gland 4. […] Tumor-bearing mice were randomized based on tumor volume prior to the initiation of treatment, which started when average tumor volume was at least 100 mm^3. Fulvestrant and Tamoxifen hydrate dissolved in sunflower seed oil (all from Sigma) were injected intraperitoneally as indicated. Tumors were measured every 3 to 4 days with vernier calipers, and tumor volumes were calculated by the formula 0.5×(larger diameter)×(smaller diameter)^2.
For in vivo studies, fulvestrant and tamoxifen were dissolved in sunflower seed oil (Sigma) and injected intraperitoneal as indicated.

| SMILES | degradation of ERα (ERα [1]) | reduction of tumor growth (T47D) | effect of LATS downregulation on sensitivity / viability of treated cells (T47D and MCF7 cells) | colony formation in cells lacking LATS compared to controls (SUM159 and MDA 436) | LATS1-induced degradation of ERα (ERα [2]) | tumor growth of SUM159 shLATS xenografts (SUM159 shLATS xenografts) | tumor growth of SUM159 shLATS xenografts (SUM159 shLATS xenografts; listed as tamoxifen citrate) |
| --- | --- | --- | --- | --- | --- | --- | --- |
| C[C@]12CC[C@@H]3c4ccc(O)cc4C[C@@H](CCCCCCCCC[S+]([O-])CCCC(F)(F)C(F)(F)F)[C@H]3[C@@H]1CC[C@@H]2O (stereo partly drawn) [fulvestrant, Fulvestrant] | failed to degrade ERα | failed | reduced sensitivity | no effect |  |  |  |
| CC(C)C[C@@H](C=O)NC(=O)[C@H](CC(C)C)NC(=O)[C@H](CC(C)C)NC(=O)OCc1ccccc1 [MG132] (Cbz-Leu-Leu-Leu-aldehyde) |  |  |  |  | prevented |  |  |
| CC/C(=C(\c1ccccc1)c1ccc(OCCN(C)C)cc1)c1ccccc1 [tamoxifen, Tamoxifen] |  |  | no effect | reduced colony formation |  | stopped growing | susceptible |
